Reference: patent publication US8129425B2, “Small organic molecule regulators of cell proliferation” (Curis, Inc., priority 2000, dated 2012)

Key:
[1] = test system: malonate induced striatal lesion; test: Rat malonate lesion model of Huntington's disease; assay type: in vivo; conditions: 300 μM in Alzet pump into brain ventricles, 1 μl/hr for 6 days pretreatment; vs vehicle, p=0.0159
Procedure: Malonate is a mitochondrial toxin and defects in mitochondrial energy metabolism are thought to play a role in the pathology of neurodegenerative diseases such as HD. When malonate is injected into the rat striatum a lesion forms in this brain region. The experiments described below tested whether the Hh agonist would reduce the size of the malonate induced striatal lesion. Hh agonist was administered directly into the brain ventricles of male SD rats via a cannula attached to an osmotic Alzet pump. […] After 6 days of pretreatment with compound, malonate was injected directly into the brain striatum and the Alzet pump was removed. Four days later rats were euthanized and the brains were sliced into 2 mm slabs. The slices were placed in a 2% solution (TTC) that stains living tissue red and the striatal infarct white. The size of the infarct (% infarct) was measured using image analysis software and the data were analyzed by one-way ANOVA followed by appropriate post-hoc tests (p<0.05).

SVZ precursor cells = test: SVZ precursor cell proliferation (BrdU) after direct brain administration in adult rats; assay type: in vivo, rat; conditions: 200 μM in pump into brain ventricles, 0.5 μl/hr for 6 days; p<0.05
Procedure: Hh agonist was administered directly into the brain ventricles of male SD rats via a cannula attached to an osmotic Alzet pump. The pumps were filled with either vehicle (5% 2-hydroxypropyl-B-cyclodextrin, 4.35% Mannitol, 0.2% DMSO) or Hh agonist (U″ ranging from 10-600 μM) and the pump released compound into the ventricles at constant rate of 0.5 μl/hr for 6 days. After 6 days of pretreatment with compound, animals were injected with Bromodeoxyuridine (BrdU, 50 mg/kg, ip) to label dividing cells. Two hours after BrdU treatment, rats were euthanized and perfused with fixative. Brains were collected and processed for BrdU immunohistochemistry. The number of BrdU-immunoreactive (BrdU-IR) cells was then counted in the SVZ on both the sides of the brain with the cannula (ipsilateral) and without (contralateral).

[2] = test system: hedgehog-responsive Gli-Luc reporter-construct; test: Gli-Luc hedgehog pathway reporter assay in [10T1/2(s12)] cells; assay type: cell-based, murine; conditions: Table 1
Procedure: To measure the hedgehog agonist activity of compounds, we used [10T1/2(s12)] cells containing the hedgehog-responsive Gli-Luc reporter-construct. In each MTP (MicroTiter Plate; 96-well plate), 10,000-20,000 cells were plated per well, in full media (10% FBS). After about 24-48 hr, plates were switched to low-serum media (=0.5%. FBS). Subsequently, a test compound was added at 1-5 μM in the presence or absence of octyl-hedgehog (see below). After another 24 hr, the media from the MTPs was discarded and replaced with luciferase assay-mix, containing lysis-buffer with luciferase substrate. The plates were incubated at RT for about 15-30 min and read in a luminometer.
Plates were incubated for 48 hr before switching to low-serum. Compounds were screened at 1-2 μM in the presence of Hh protein (0.01 μg/ml; EC30=about 30% of max-induced activity).
Plates were incubated for 24 hr before switching to low-serum. Compounds were screened at 5 μM without adding Hh protein.
From Screen A, we identified hits identified in FIGS. 32 and 33. The 1,4-diaminocyclohexane subunit of the compounds of FIG. 32 which include this moiety have the two amino substituents disposed in a trans-relationship, e.g., both substituents equatorial on the cyclohexane subunit. These hits were confirmed in Screen B. The data shown in FIGS. 34a and 34b essentially involved dosing the two compounds in both assays (Gli-Luc & SV-Luc).
The data from the Gli-Luc assay is converted to percent activity where full activity with Hh protein is set at 100% (FIG. 35; Table 1). […] Furthermore, the compounds show a more striking induction in the presence of hedgehog (EC50=0.2-0.3 μM, ECmax=70-90% of max induced activity with Hh protein), indicating a synergy between the compounds and Hh protein, consistent with the compounds serving as agonists for the hedgehog pathway.

Compound: CN[C@H]1CC[C@H](N(Cc2cccc(-c3ccncc3)c2)C(=O)c2sc3c(F)ccc(F)c3c2Cl)CC1 [U′′]
- size of malonate-induced infarct (% infarct) [1]: reduced the size of the malonate-induced infarct
- number of BrdU-IR cells in SVZ (SVZ precursor cells): dramatically increased on both sides of the brain
- EC50 [2]: < 5 nM
